A value given as a limit tells only on which side of the number the result lay.

The assay has as its target T1, human neutrophil elastase (HNE) (Homo sapiens, UniProt P08246).
T1 construct: purchased Sigma E8140
T1 sequence (P08246 30-247 limits assumed): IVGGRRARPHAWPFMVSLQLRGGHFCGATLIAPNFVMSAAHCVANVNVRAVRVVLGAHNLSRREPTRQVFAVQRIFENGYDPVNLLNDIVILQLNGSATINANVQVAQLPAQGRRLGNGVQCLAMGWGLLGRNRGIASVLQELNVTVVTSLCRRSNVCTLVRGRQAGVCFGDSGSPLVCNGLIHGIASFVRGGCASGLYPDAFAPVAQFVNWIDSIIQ
The assay is described as follows: HNE enzyme activity assay (fluorogenic peptide substrate MeOSuc-Ala-Ala-Pro-Val-AMC). In kind it is biochemical. Conditions: human leukocyte elastase 0.00072 U/mL, substrate 100 μM, 25° C., 30 minutes, pH 7.5; at least two separate experiments; read-out: FINE inhibition (HNE enzyme inhibition, IC50 values). How it is done: Compounds of this invention were tested for potency in a human neutrophil elastase (HNE) enzyme activity assay.
Assays were performed in 96-well plates in a total assay volume of 100 μL. The final concentration of elastase enzyme (human leukocyte elastase, Sigma E8140) was 0.00072 U/mL. The peptide substrate (MeOSuc-Ala-Ala-Pro-Val-AMC, Calbiochem #324740) was used at a final concentration of 100 μM. The final concentration of DMSO was 1% in the assay buffer (0.05M Tris.HCl, 0.1M NaCl, 0.1M CaCl2, 0.0005% brij-35, pH 7.5). The enzymatic reaction was started by addition of the enzyme and incubated at 25° C. for 30 minutes. After incubation, the reaction was stopped by addition of soybean trypsin inhibitor (Sigma T9003) at a final concentration of 50 μg/well. Fluorescence was measured using a Molecular Devices fluorescence plate reader using 380 nm excitation and 460 nm emission wavelengths.
A dose response to each compound was performed and the effect of compound in each experiment was expressed as a percentage inhibition of the control enzyme fluorescence. Dose response curves were plotted and compound potency (IC50) was determined. Compounds were tested in at least two separate experiments.
In the case of `Cc1c(-c2ccnn2-c2ccc(C#N)cc2)n(C(=O)N[C@@H]2COC[C@H]2O)c(=O)n1-c1cccc(C(F)(F)F)c1` (racemic) [Example 48, Mixture of 5-[2-(4-Cyano-phenyl)-2H-pyrazol-3-yl]-4-methyl-2-oxo-3-(3-trifluoromethyl-phenyl)-2,3-dihydro-imidazole-1-carboxylic acid ((3R,4S)-4-hydroxy-tetrahydro-furan-3-yl)-amide and 5-[2-(4-Cyano-phenyl)-2H-pyrazol-3-yl]-4-methyl-2-oxo-3-(3-trifluoromethyl-phenyl)-2,3-dihydro-imidazole-1-carboxylic acid ((3S,4R)-4-hydroxy-tetrahydro-furan-3-yl)-amide], the IC50 was less than 1 nM.
In the case of `Cc1c(-c2ccnn2-c2ccc(C#N)cc2)[nH]c(=O)n1-c1cccc(C(F)(F)F)c1` [Example 1, 4-(5-{5-Methyl-2-oxo-1-[3-(trifluoromethyl)phenyl]-2,3-dihydro-1H-imidazol-4-yl}-1H-pyrazol-1-yl)benzonitrile], the IC50 was in the range of 10 to 50 nM.
As for `Cc1c(-c2ccnn2-c2ccc(C#N)cc2)n(CCCS(C)(=O)=O)c(=O)n1-c1cccc(C(F)(F)F)c1` [Example 2, 4-(5-{5-Methyl-3-[3-(methylsulfonyl)propyl]-2-oxo-1-[3-(trifluoromethyl)phenyl]-2,3-dihydro-1H-imidazol-4-yl}-1H-pyrazol-1-yl)benzonitrile], the figure is 1 to 10 nM.
On to `Cc1c(-c2ccnn2-c2ccc(C#N)cc2)n(C)c(=O)n1-c1cccc(C(F)(F)F)c1` [Example 3, 4-(5-{3,5-Dimethyl-2-oxo-1-[3-(trifluoromethyl)phenyl]-2,3-dihydro-1H-imidazol-4-yl}-1H-pyrazol-1-yl)benzonitrile], for which the IC50 was in the range of 1 to 10 nM.
As for `CCOC(=O)n1c(-c2ccnn2-c2ccc(C#N)cc2)c(C)n(-c2cccc(C(F)(F)F)c2)c1=O` [Example 4, Ethyl-5-[1-(4-cyanophenyl)-1H-pyrazol-5-yl]-4-methyl-2-oxo-3-[3-(trifluoromethyl)phenyl]-2,3-dihydro-1H-imidazole-1-carboxylate], the figure is less than 1 nM.
As for `CC(=O)n1c(-c2ccnn2-c2ccc(C#N)cc2)c(C)n(-c2cccc(C(F)(F)F)c2)c1=O` [Example 5, 4-(5-{3-Acetyl-5-methyl-2-oxo-1-[3-(trifluoromethyl)phenyl]-2,3-dihydro-1H-imidazol-4-yl}-1H-pyrazol-1-yl)benzonitrile], the IC50 lay within 1 to 10 nM.
As for `CCNC(=O)n1c(-c2ccnn2-c2ccc(C#N)cc2)c(C)n(-c2cccc(C(F)(F)F)c2)c1=O` [Example 6, 5-[1-(4-Cyanophenyl)-1H-pyrazol-5-yl]-N-ethyl-4-methyl-2-oxo-3-[3-(trifluoromethyl)phenyl]-2,3-dihydro-1H-imidazole-1-carboxamide], the figure is less than 1 nM.
Consider `Cc1c(-c2ccnn2-c2ccc(C#N)cc2)n(C(=O)NCCO)c(=O)n1-c1cccc(C(F)(F)F)c1` [Example 7, 5-[1-(4-Cyanophenyl)-1H-pyrazol-5-yl]-N-(2-hydroxyethyl)-4-methyl-2-oxo-3-[3-(trifluoromethyl)phenyl]-2,3-dihydro-1H-imidazole-1-carboxamide], for which the half-inhibitory concentration (IC50) is 1 to 10 nM.
As for `Cc1c(-c2ccnn2-c2ccc(C#N)cc2)n(C(=O)NCCCO)c(=O)n1-c1cccc(C(F)(F)F)c1` [Example 8, 5-[1-(4-Cyanophenyl)-1H-pyrazol-5-yl]-N-(3-hydroxypropyl)-4-methyl-2-oxo-3-[3-(trifluoromethyl)phenyl]-2,3-dihydro-1H-imidazole-1-carboxamide], the figure is less than 1 nM; as for `Cc1c(-c2ccnn2-c2ccc(C#N)cc2)n(C(=O)NCCCN(C)C)c(=O)n1-c1cccc(C(F)(F)F)c1` [Example 9, 5-[1-(4-Cyanophenyl)-1H-pyrazol-5-yl]-N-[3-(dimethylamino)propyl]-4-methyl-2-oxo-3-[3-(trifluoromethyl)phenyl]-2,3-dihydro-1H-imidazole-1-carboxamide], 1 to 10 nM.
As to `CCCC(=O)n1c(-c2ccnn2-c2ccc(C#N)cc2)c(C)n(-c2cccc(C(F)(F)F)c2)c1=O` [Example 10, 4-(5-{3-Butanoyl-5-methyl-2-oxo-1-[3-(trifluoromethyl)phenyl]-2,3-dihydro-1H-imidazol-4-yl}-1H-pyrazol-1-yl)benzonitrile], the IC50 was less than 1 nM.
As for `COCCNC(=O)n1c(-c2ccnn2-c2ccc(C#N)cc2)c(C)n(-c2cccc(C(F)(F)F)c2)c1=O` [Example 11, 5-[1-(4-Cyanophenyl)-1H-pyrazol-5-yl]-N-(2-methoxyethyl)-4-methyl-2-oxo-3-[3-(trifluoromethyl)phenyl]-2,3-dihydro-1H-imidazole-1-carboxamide], the figure is less than 1 nM; as for `Cc1c(-c2ccnn2-c2ccc(C#N)cc2)n(C(=O)NCCN(C)C)c(=O)n1-c1cccc(C(F)(F)F)c1` [Example 12, 5-[1-(4-Cyanophenyl)-1H-pyrazol-5-yl]-N-[2-(dimethylamino)ethyl]-4-methyl-2-oxo-3-[3-(trifluoromethyl)phenyl]-2,3-dihydro-1H-imidazole-1-carboxamide], 1 to 10 nM; as for `Cc1c(-c2ccnn2-c2ccc(C#N)cc2)n(C(=O)NCCS(C)(=O)=O)c(=O)n1-c1cccc(C(F)(F)F)c1` [Example 13, 5-[1-(4-Cyanophenyl)-1H-pyrazol-5-yl]-4-methyl-N-[2-(methylsulfonyl)ethyl]-2-oxo-3-[3-(trifluoromethyl)phenyl]-2,3-dihydro-1H-imidazole-1-carboxamide], less than 1 nM.
As for `Cc1c(-c2ccnn2-c2ccc(C#N)cc2)n(C(=O)NC2CCOC2)c(=O)n1-c1cccc(C(F)(F)F)c1` (centres unmarked) [Example 14, 5-[1-(4-Cyanophenyl)-1H-pyrazol-5-yl]-4-methyl-2-oxo-N-(tetrahydrofuran-3-yl)-3-[3-(trifluoromethyl)phenyl]-2,3-dihydro-1H-imidazole-1-carboxamide], the figure is less than 1 nM.
As for `Cc1c(-c2ccnn2-c2ccc(C#N)cc2)n(C(=O)N[C@H]2CCOC2)c(=O)n1-c1cccc(C(F)(F)F)c1` [Example 15, 5-[1-(4-Cyanophenyl)-1H-pyrazol-5-yl]-4-methyl-2-oxo-N-[(3S)-tetrahydrfuran-3-yl]-3-[3-(trifluoromethyl)phenyl]-2,3-dihydro-1H-imidazole-1-carboxamide], the figure is less than 1 nM.
On to `Cc1c(-c2ccnn2-c2ccc(C#N)cc2)n(C(=O)N[C@@H]2CCOC2)c(=O)n1-c1cccc(C(F)(F)F)c1` [Example 16, 5-[1-(4-Cyanophenyl)-1H-pyrazol-5-yl]-4-methyl-2-oxo-N-[(3R)-tetrahydrofuran-3-yl]-3-[3-(trifluoromethyl)phenyl]-2,3-dihydro-1H-imidazole-1-carboxamide], for which the 50% inhibitory concentration (IC50) is less than 1 nM.
As for `Cc1c(-c2ccnn2-c2ccc(C#N)cc2)n(C(=O)NCc2ccn(C)n2)c(=O)n1-c1cccc(C(F)(F)F)c1` [Example 17, 5-[1-(4-Cyanophenyl)-1H-pyrazol-5-yl]-4-methyl-N-[(1-methyl-1H-pyrazol-3-yl)methyl]-2-oxo-3-[3-(trifluoromethyl)phenyl]-2,3-dihydro-1H-imidazole-1-carboxamide], the figure is less than 1 nM.
As for `COC(=O)n1c(-c2ccnn2-c2ccc(C#N)cc2)c(C)n(-c2cccc(C(F)(F)F)c2)c1=O` [Example 18, Methyl-5-[1-(4-cyanophenyl)-1H-pyrazol-5-yl]-4-methyl-2-oxo-3-[3-(trifluoromethyl)phenyl]-2,3-dihydro-1H-imidazole-1-carboxylate], the figure is less than 1 nM; as for `CCCCC(=O)n1c(-c2ccnn2-c2ccc(C#N)cc2)c(C)n(-c2cccc(C(F)(F)F)c2)c1=O` [Example 19, 4-(5-{5-Methyl-2-oxo-3-pentanoyl-1-[3-(trifluoromethyl)phenyl]-2,3-dihydro-1H-imidazol-4-yl}-1H-pyrazol-1-yl)benzonitrile], less than 1 nM.
As for `Cc1c(-c2ccnn2-c2ccc(C#N)cc2)n(CC(=O)OC(C)(C)C)c(=O)n1-c1cccc(C(F)(F)F)c1` [Example 20, tert-Butyl-{5-[1-(4-cyanophenyl)-1H-pyrazol-5-yl]-4-methyl-2-oxo-3-[3-(trifluoromethyl)phenyl]-2,3-dihydro-1H-imidazol-1-yl}acetate], the figure is 10 to 50 nM; as for `CCN(C)C(=O)n1c(-c2ccnn2-c2ccc(C#N)cc2)c(C)n(-c2cccc(C(F)(F)F)c2)c1=O` [Example 21, 5-[1-(4-Cyanophenyl)-1H-pyrazol-5-yl]-N-ethyl-N,4-dimethyl-2-oxo-3-[3-(trifluoromethyl)phenyl]-2,3-dihydro-1H-imidazole-1-carboxamide], 10 to 50 nM.
Turning to `Cc1c(-c2ccnn2-c2ccc(C#N)cc2)n(CC(=O)O)c(=O)n1-c1cccc(C(F)(F)F)c1` [Example 22, {5-[1-(4-Cyanophenyl)-1H-pyrazol-5-yl]-4-methyl-2-oxo-3-[3-(trifluoromethyl)phenyl]-2,3-dihydro-1H-imidazol-1-yl}acetic acid], the IC50 lay within 10 to 50 nM.

Values taken from US9409870B2, “Compounds” (CHIESI FARMACEUTICI S.p.A., priority 2014, dated 2016).
